US20100267753A1, “METHODS OF TREATING DISORDERS ASSOCIATED WITH PROTEIN KINASE CK2 ACTIVITY” (priority 2009, published 2010)
Read-outs that look alike come from different tables or passages of the source.

Legend:
HIPK3 = HIPK3 (Homo sapiens, UniProt Q9H422); experiment: Kinase panel IC-50, HIPK3; format: biochemical
DYRK2 = target: T1, DYRK2 (Homo sapiens, UniProt Q92630); experiment: Kinase panel IC-50, DYRK2; format: biochemical
T1 sequence (Q92630 1-601): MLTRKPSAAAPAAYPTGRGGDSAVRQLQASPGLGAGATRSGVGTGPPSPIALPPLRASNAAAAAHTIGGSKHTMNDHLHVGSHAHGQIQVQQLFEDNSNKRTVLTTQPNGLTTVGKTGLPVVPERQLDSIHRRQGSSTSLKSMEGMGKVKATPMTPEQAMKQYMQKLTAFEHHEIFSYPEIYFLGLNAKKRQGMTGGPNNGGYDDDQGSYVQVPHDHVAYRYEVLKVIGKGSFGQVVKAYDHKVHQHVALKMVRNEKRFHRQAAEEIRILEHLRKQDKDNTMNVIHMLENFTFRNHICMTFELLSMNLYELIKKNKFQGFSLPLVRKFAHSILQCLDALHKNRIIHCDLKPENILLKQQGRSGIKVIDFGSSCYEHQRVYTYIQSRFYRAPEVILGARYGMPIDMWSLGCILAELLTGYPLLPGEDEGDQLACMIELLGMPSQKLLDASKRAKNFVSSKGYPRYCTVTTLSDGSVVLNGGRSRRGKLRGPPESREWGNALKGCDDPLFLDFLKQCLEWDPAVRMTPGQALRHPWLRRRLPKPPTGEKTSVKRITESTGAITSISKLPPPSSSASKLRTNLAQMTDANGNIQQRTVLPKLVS

[1] = Pharmacokinetics in dog (IV bolus or oral dose); format: in vivo; conditions: for AUC(0-inf) / Cmax / half-life / Vd: plasma; for half-life: read-out: Terminal T1/2 (converted); for Vd: read-out: Vdss
Description: The pharmacokinetics properties of drugs were investigated in three species, following an intravenous (IV) bolus or oral (PO) dose of Compound K at the dosages indicated in the chart. Blood samples were collected at predetermined times and the plasma separated. Plasma was separated from the blood samples collected at 5, 15 and 30 minutes and 1, 2, 4, 8 and 24 hours post-dose.
Drug levels were quantified by the LC/MS/MS method described below. Noncompartmental pharmacokinetic analysis was applied for intravenous administration. A linear trapezoidal rule was used to compute AUC(0-24). The terminal t1/2 and C0 were calculated using the last three and the first three data points, respectively
Bioanalysis was performed using a Quattro Micro LC/MS/MS instrument in the MRM detection mode, with an internal standard (1S). Briefly, 15 μL plasma samples were prepared for analysis using protein precipitation with 120 μL of acetonitrile. The supernatants were transferred into a 96 well plate and subjected to LC-MS/MS analysis using a Phenomenex Polar-RP HPLC column. The mobile phases were 10 mM NH4HCO3 in water (Solution-A) and 10 mM NH4HCO3 in methanol (Solution-B). The column was initially equilibrated with 25% Solution-B and followed with 100% Solution B over 5 minutes. […] Quantitation of the analytes was performed in the batch mode with two bracketing calibration curves according to the bioanalytical sample list.

[2] = Pharmacokinetic summary across mouse, rat and dog; format: in vivo
Description: Particularly for chronic conditions, oral administration is preferred. Typical dosages for oral administration would be approximately 5-500 mg/kg per day.
For some embodiments, delivery of compound K by injection, such as intramuscular or intravenous, may be preferred. […] The dosage for injected delivery (IV) can be about half of the oral dosage since injection bypasses the absorption barriers that reduce oral bioavailability. For delivery by injection, lower doses such as 1-25 mg/kg per day may be used to achieve similar plasma levels of drug.

[3] = test system: CFA-induced thermal hyperalgesia; experiment: CFA-induced thermal hyperalgesia model (Hargreaves); format: in vivo, ICR mice; conditions: 25, 75 or 150 mg/kg BID for four days, dosed as suspensions
Description: The observations of pain responses were done blindly.
[…] On day 4, test subjects received a single injection of CFA (20 microliters) subcutaneously in the plantar surface of the left rear paw. CFA was injected subcutaneously into the plantar surface of the left hind paw of each test subject, under isoflurane anesthesia. […] On day 5, thermal responses were measured prior to treatment with the compound and again 1, 2, and 4 hours after treatment with […]. Withdrawal latencies were measured in response to thermal stimulus by the Hargreaves method. Naproxen was used as a positive control.

[4] = Phase I clinical study, safety and pharmacokinetics; format: in vivo, human
Description: Oral doses are administered twice daily for twenty-one consecutive days of a four week cycle. […] Response by RECIST is determined after every 2 cycles. Serial blood and plasma samples are collected on the first and final dosing days of Cycle 1 (i.e., Day 1 and Day 21) for pharmacokinetic analysis and for pharmacodynamic biomarker evaluations (specifically, total and phosphorylated forms of p21 and Akt).
Patients in Cohorts 1-3 were dosed twice daily (BID) with oral capsules.

HIV-1 isolates = experiment: PBMC assay, virus production; format: cell-based
Description: Acute infection of HIV-1 isolates (CXCR4-tropic HIV-1 Subtype B and CCR5-tropic HIV-1 Subtype) using fresh human PBMCs from multiple donors (PMA and IL-2 stimulated). Antiviral activity determined as a reduction in reverse transcriptase after 7-day incubation.
Antiviral activity was determined as a reduction in reverse transcriptase after 7-day incubation. AZT, a nucleoside analog reverse transcriptase inhibitor, was used as the positive control for the assay.

IL-8 = IL-8 production in prostate cancer cells; format: cell-based
xenograft tumor = experiment: Xenograft tumor growth (pre-clinical); format: in vivo; conditions: single agent
[5] = Dog, 1.6 mg/kg IV, different lot
[6] = Dog, 7.7 mg/kg PO, filled capsules, different lot
[7] = Dog, 8.2 mg/kg PO, filled capsules
[8] = thirteen patients with solid tumors, oral BID

HIPK3, sequence (Q9H422 whole entry, species assumed): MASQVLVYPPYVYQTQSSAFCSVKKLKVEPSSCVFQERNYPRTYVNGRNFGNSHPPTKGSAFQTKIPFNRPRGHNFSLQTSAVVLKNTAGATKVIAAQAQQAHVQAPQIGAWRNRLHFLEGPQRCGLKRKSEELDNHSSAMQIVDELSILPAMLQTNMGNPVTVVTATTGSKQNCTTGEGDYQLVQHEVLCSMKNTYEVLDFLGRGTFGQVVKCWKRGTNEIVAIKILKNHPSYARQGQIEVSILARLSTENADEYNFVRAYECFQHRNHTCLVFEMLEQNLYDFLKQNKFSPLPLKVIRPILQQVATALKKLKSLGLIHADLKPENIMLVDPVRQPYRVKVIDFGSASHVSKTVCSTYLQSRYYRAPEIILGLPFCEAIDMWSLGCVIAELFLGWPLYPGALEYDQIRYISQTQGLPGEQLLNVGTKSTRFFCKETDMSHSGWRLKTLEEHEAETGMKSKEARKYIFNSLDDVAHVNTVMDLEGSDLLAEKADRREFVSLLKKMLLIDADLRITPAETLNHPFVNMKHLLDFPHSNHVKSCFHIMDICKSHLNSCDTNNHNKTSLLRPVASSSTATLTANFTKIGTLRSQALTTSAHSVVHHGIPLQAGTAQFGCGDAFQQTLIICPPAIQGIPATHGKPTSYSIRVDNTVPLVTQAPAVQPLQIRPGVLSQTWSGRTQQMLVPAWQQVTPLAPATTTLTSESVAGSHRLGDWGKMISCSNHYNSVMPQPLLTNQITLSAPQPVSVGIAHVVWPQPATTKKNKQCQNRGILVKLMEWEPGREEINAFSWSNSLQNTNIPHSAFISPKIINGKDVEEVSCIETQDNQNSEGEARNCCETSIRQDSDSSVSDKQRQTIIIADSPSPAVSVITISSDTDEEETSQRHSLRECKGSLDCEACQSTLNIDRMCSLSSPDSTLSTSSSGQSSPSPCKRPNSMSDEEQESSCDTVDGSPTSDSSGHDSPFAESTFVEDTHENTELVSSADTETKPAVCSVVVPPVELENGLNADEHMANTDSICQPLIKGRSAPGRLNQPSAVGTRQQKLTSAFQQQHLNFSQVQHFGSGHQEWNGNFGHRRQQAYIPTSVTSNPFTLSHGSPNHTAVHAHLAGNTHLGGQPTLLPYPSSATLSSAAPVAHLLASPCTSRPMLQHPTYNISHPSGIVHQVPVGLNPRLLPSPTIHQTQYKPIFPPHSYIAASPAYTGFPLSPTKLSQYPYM

With `O=C(O)c1ccc2c(c1)nc(Nc1cccc(Cl)c1)c1ccncc12` [Compound K, 5-(3-chlorophenylamino)benzo[c][2,6]naphthyridine-8-carboxylic acid] the IC50 (HIPK3) was 0.045 µM, the IC50 (DYRK2) was 0.091 µM and the CLs [1, 5] was 15 mL/min/kg. The CLs ([1]; Dog, 1.9 mg/kg IV) was 12 mL/min/kg, the “Terminal T1/2” value ([1]; Dog, 1.9 mg/kg IV) was 8.3 h and the “% F0-inf” value [1, 6] was 41.8%. For the same compound, the “% F0-inf” value [1, 7] was 51.5%, the AUC(0-inf) ([1]; dog, iv, 1.6 mg/kg) was 1640 ng·h/mL and the AUC(0-inf) ([1]; dog, po, 7.7 mg/kg) was 3440 ng·h/mL. The Cmax [1, 5] was 4440 ng/mL, the half-life [1, 5] was 8.3 h and the Vd [1, 5] was 11.3 L/kg. For the same compound, the Cmax ([1]; Dog, 1.9 mg/kg IV) was 5780 ng/mL, the AUC(0-inf) ([1]; Dog, 1.9 mg/kg IV, 25 mM sodium phosphate buffer) was 2540 ng·h/mL and the Vd ([1]; Dog, 1.9 mg/kg IV) was 8.9 L/kg. The Cmax [1, 6] was 2730 ng/mL, the half-life [1, 6] was 9.9 h and the AUC(0-inf) [1, 7] was 5650 ng·h/mL. The Cmax [1, 7] was 2180 ng/mL, the half-life [1, 7] was 5.2 h and the bioavailability ([2]; plasma, po, rat and dog, administered orally) was 20 to 50%. The half-life ([2]; plasma, rat and dog, oral) was 5 to 12 h, the “clearance rate in vivo” value ([2]; rat and dog) was “relatively low clearance rate” and the half-life ([2]; rat, dog, plasma, other: injected (such as intramuscular or intravenous), when injected) was 5 to 12 h. The “effect on CFA-induced thermal hyperalgesia” value [3] was “Neither compound exhibited a statistically significant effect”, the “dose-limiting toxicities (DLTs)” value ([4]; Phase I patients) was “No dose-limiting toxicities (DLTs) have yet been observed” and the drug related toxicity ([4]; Phase I patients) was “no drug related toxicity”. The plasma exposures ([4]; after first dose on day 1 and day 21, Cohorts 1-3 (90, 160, 300 mg BID)) was “Dose related plasma exposures were observed”, the accumulation ([4]; day 1 vs day 21) was “No accumulation was observed” and the half-life ([4]; human, in vivo, at steady state, patients, oral BID, read-out: terminal half life (converted)) was about 25 h. The “drug-related significant adverse events of grade 3 or higher” value [4, 8] was “no drug-related significant adverse events of grade 3 or higher reported”, the “tolerability of oral doses” value [4, 8] was “well tolerated” and the “inhibition of virus production” value (HIV-1 isolates) was “no significant inhibition of virus production”. The IL-8 production (IL-8; ELISA (24 hr)) was “suppression of IL-8 production”, the IL-8 production (IL-8; qRT-PCR (8 hr)) was “suppression of IL-8 production” and the xenograft tumor growth (xenograft tumor) was “single-agent potency in suppressing xenograft tumor growth”.
